Measured values as given in patent publication US12180187B2, “1-phenyl-5-azinylpyrazolyl-3-oxyalkyl acids and their use for controlling unwanted plant growth” (BAYER AKTIENGESELLSCHAFT, priority 2019, dated 2024).

Key:
[1] = tested on: STEME; assay: Post-emergence action against STEME, 1.28 kg/ha; type: in vivo, Stellaria media; conditions: dosage 1280 g/ha, visual rating about 3 weeks after treatment vs untreated controls (100% = plants died)
Summary of the method: (§1)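 Percent activity was scored visually ~3 wk post-spray relative to untreated plants. Treatment was post-emergence at the one-leaf stage using WP/EC in water with 0.5% additive (600 L/ha).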

[2] = tested on: AVEFA; assay: Post-emergence action at 320 g/ha against AVEFA; type: in vivo; conditions: visual rating about 3 weeks after treatment vs untreated controls
Summary of the method: (§2)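 Greenhouse-grown plants sprayed post-emergence at the one-leaf stage, 2 to 3 weeks after sowing, with WP or EC formulations plus 0.5% additive at 600 l/ha water, at 320 g/ha. Activity rated visually after about 3 weeks versus untreated controls (100% = plants died, 0% = like control).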

[3] = tested on: VIOTR; assay: Post-emergence action at 320 g/ha against VIOTR; type: in vivo, Viola tricolor; conditions: visual rating about 3 weeks after treatment vs untreated controls
Summary of the method: as §2

[4] = tested on: STEME; assay: Pre-emergence action at 320 g/ha against STEME; type: in vivo, Stellaria media; conditions: greenhouse, scored visually after about 3 weeks vs untreated controls, 100% = plants have died, 0% = like control plants
Excerpt: b) Seeds of monocotyledonous and dicotyledonous weed plants and crop plants are placed in plastic or organic planting pots and covered with soil. The compounds of the invention, formulated in the form of wettable powders (WP) or as emulsion concentrates (EC), are then applied onto the surface of the covering soil as aqueous suspension or emulsion with addition of 0.5% additive at a water application rate of 600 l/ha (converted). After the treatment, the pots are placed in a greenhouse and kept under good growth conditions for the trial plants. After about 3 weeks, the effect of the preparations is scored visually in comparison with untreated controls as percentages. For example, 100% activity=the plants have died, 0% activity=like control plants. Tables 13 to 26 below show the effects of selected compounds of the general formula (I) on various harmful plants and at an application rate corresponding to 320 g/ha, which were obtained by the experimental procedure mentioned above.

[5] = tested on: VERPE; assay: Pre-emergence action against VERPE, 1280 g/ha; type: in vivo, Veronica persica; conditions: scored visually after about 3 weeks vs untreated controls (100% = plants have died)
Summary of the method: (§3)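 Activity was scored visually as percent versus untreated controls about 3 weeks after treatment (100% = dead plants, 0% = control-like). Compounds, formulated as wettable powders or emulsion concentrates, were sprayed onto the covering soil over freshly sown seeds in sandy loam, with 0.5% additive and 600 L/ha water.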

[6] = tested on: DIGSA; assay: Pre-emergence action against DIGSA, 1280 g/ha; type: in vivo, Digitaria sanguinalis; conditions: visual scoring after about 3 weeks vs untreated controls, 100% = plants have died, 0% = like control plants
Summary of the method: as §3

[7] = tested on: DIGSA; assay: Post-emergence action at 320 g/ha against DIGSA; type: in vivo, Digitaria sanguinalis; conditions: dosage 320 g/ha, visual rating about 3 weeks after treatment vs untreated controls (100% = plants died)
Summary of the method: as §2

[8] = tested on: ECHCG; assay: Post-emergence action at 320 g/ha against ECHCG; type: in vivo, Echinochloa crus-galli; conditions: dosage 320 g/ha, visual rating about 3 weeks after treatment vs untreated controls (100% = plants died)
Summary of the method: as §2

[9] = tested on: HORMU; assay: Post-emergence action at 320 g/ha against HORMU; type: in vivo, Hordeum murinum; conditions: visual rating about 3 weeks after treatment vs untreated controls
Excerpt: Accordingly, the compounds of the invention have good herbicidal action against a broad spectrum of weed grasses and broad-leaved weeds and are therefore suitable for controlling unwanted vegetation by the post-emergence method. • b) Seeds of monocotyledonous and dicotyledonous weeds and crop plants are placed in sandy loam in plastic or organic planting pots, covered with soil and cultivated in a greenhouse under controlled growth conditions. 2 to 3 weeks after sowing, the test plants are treated at the one-leaf stage. The compounds of the invention, formulated in the form of wettable powders (WP) or as emulsion concentrates (EC), are then sprayed onto the green parts of the plants as aqueous suspension or emulsion with addition of 0.5% additive at a water application rate of 600 l/ha (converted). After the test plants have been kept in the greenhouse under optimum growth conditions for about 3 weeks, the activity of the preparations is rated visually in comparison to untreated controls. For example, 100% activity=the plants have died, 0% activity=like control plants. Tables 39 to 49 below show the effects of selected compounds of the general formula (I) according to Tables 1 and 2 on various harmful plants and at an application rate corresponding to 320 g/ha, which were obtained by the experimental procedure mentioned above.

[10] = tested on: PHBPU; assay: Post-emergence action at 320 g/ha against PHBPU; type: in vivo; conditions: visual rating about 3 weeks after treatment vs untreated controls
Summary of the method: as §2

[11] = tested on: ABUTH; assay: Post-emergence action at 320 g/ha against ABUTH; type: in vivo, Abutilon theophrasti; conditions: visual rating about 3 weeks after treatment vs untreated controls
Summary of the method: as §2

[12] = tested on: LOLRI; assay: Pre-emergence action against LOLRI, 1280 g/ha; type: in vivo, Lolium rigidum; conditions: visual scoring after about 3 weeks vs untreated controls, 100% = plants have died, 0% = like control plants
Summary of the method: as §3

[13] = tested on: SETVI; assay: Post-emergence action against SETVI, 1.28 kg/ha; type: in vivo, Setaria viridis; conditions: dosage 1280 g/ha, visual rating about 3 weeks after treatment vs untreated controls
Summary of the method: as §1

[14] = tested on: AMARE; assay: Post-emergence action against AMARE, 1.28 kg/ha; type: in vivo, Amaranthus retroflexus; conditions: dosage 1280 g/ha, visual rating about 3 weeks after treatment vs untreated controls (100% = plants died)
Summary of the method: as §1

[15] = tested on: PHBPU; assay: Pre-emergence action at 320 g/ha against PHBPU; type: in vivo; conditions: visual scoring after about 3 weeks vs untreated controls
Summary of the method: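 Visual % scoring at about 3 weeks post-treatment against untreated pots (0% = like control, 100% = dead), greenhouse-grown. Compounds applied at 320 g/ha as aqueous WP/EC suspension or emulsion plus 0.5% additive, 600 l/ha water, onto covering soil of freshly sown pots before emergence.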

[16] = tested on: KCHSC; assay: Post-emergence action against KCHSC, 1.28 kg/ha; type: in vivo, Bassia scoparia; conditions: dosage 1280 g/ha, visual rating about 3 weeks after treatment vs untreated controls (100% = plants died)
Summary of the method: as §1

[17] = tested on: ALOMY; assay: Pre-emergence action against ALOMY, 1280 g/ha; type: in vivo, Alopecurus myosuroides; conditions: visual scoring after about 3 weeks vs untreated controls, 100% = plants have died, 0% = like control plants
Summary of the method: as §3

Structure (SMILES) | Post-emergence action against STEME [1] | Pre-emergence action at 320 g/ha against STEME in % [4] | Pre-emergence action against DIGSA [6] | Post-emergence action at 320 g/ha against ECHCG in % [8] | Post-emergence action against HORMU in % [9] | Post-emergence action against PHBPU in % [10] | Post-emergence action against ABUTH in % [11] | Post-emergence action against SETVI [13] | Post-emergence action against AVEFA in % [2] | Post-emergence action against VIOTR in % [3] | Post-emergence action against AMARE [14] | Pre-emergence action against VERPE [5] | Pre-emergence action against PHBPU in % [15] | Pre-emergence action against LOLRI [12] | Post-emergence action at 320 g/ha against DIGSA in % [7] | also measured
COC(=O)C(C)Oc1nn(-c2ccccc2)c(-c2ccc(F)nc2)c1Cl (stereo not shown) [VII-023, Methyl 2-{[4-chloro-5-(6-fluoropyridin-3-yl)-1-phenyl-1H-pyrazol-3-yl]oxy}propanoate] | 100% | 90% | 90% | 80% | 90% | 90% | 90% |  |  |  |  |  |  |  |  | pest or weed control at 320 g/ha ([2]; Avena fatua, 504 h): 80%; pest or weed control at 320 g/ha ([3]; Viola tricolor, 504 h): 80%; pest or weed control at 1280 g/ha ([5]; Veronica persica, 504 h): 100%; pest or weed control at 320 g/ha ([7]; Digitaria sanguinalis, 504 h): 90%; pest or weed control at 1280 g/ha ([12]; Lolium rigidum, 504 h): 100%
COC(=O)COc1nn(-c2ccc(F)cc2)c(-c2cccnc2)c1Br [VII-028] | 100% | 90% |  | 80% | 80% | 90% | 80% | 90% | 80% | 80% | 100% | 90% | 100% |  |  | 
CCC(Oc1nn(-c2ccccc2F)c(-c2ccc(F)nc2)c1Br)C(=O)OC (stereo not shown) [VII-029] | 100% | 90% | 100% | 80% | 90% |  | 80% |  | 90% | 100% | 90% | 100% |  | 100% |  | Post-emergence action against KCHSC [16]: 90%; Pre-emergence action against ALOMY [17]: 90%
COC(=O)C(C)Oc1nn(-c2ccccc2)c(-c2cccnc2)c1Cl (stereo not shown) [VII-032] | 100% | 90% | 90% | 90% | 90% | 90% | 80% | 90% | 100% | 90% | 100% | 100% | 100% | 100% | 90% | 
O=C(O)COc1nn(-c2ccccc2F)c(-c2ccnc(F)c2)c1Br [VIII-004] | 100% | 90% |  | 90% | 90% | 90% |  | 100% | 100% | 90% | 90% | 90% |  | 100% | 90% | 
